According to patent US6737383B1, “Herbicidal oxadiazolidines” (priority 1999, dated 2004):

Experiments:
Conditions in all cases: Preemergence
[1] = test system: corn; assay: Test B pre/postemergence corn; type: in vivo, Zea mays
How it was run: (§1)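 Herbicidal effect was estimated by eye on a ten-point control scale after plants spent twelve to sixteen days in a greenhouse following soil or foliar treatment. Foliar sprays targeted plants at one to four leaves; all doses were formulated in a non-phytotoxic solvent with surfactant.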

[2] = test system: velvetleaf; assay: Test B pre/postemergence velvetleaf; type: in vivo, Abutilon theophrasti
How it was run: as §1

[3] = test system: cocklebur; assay: Test B pre/postemergence cocklebur; type: in vivo, Xanthium strumarium
How it was run: as §1

[4] = test system: morningglory; assay: Test B pre/postemergence morningglory; type: in vivo, Ipomoea hederacea
How it was run: as §1

[5] = test system: blackgrass; assay: Test B pre/postemergence blackgrass; type: in vivo, Alopecurus myosuroides
How it was run: as §1

[6] = test system: sugar beet; assay: Test B pre/postemergence sugar beet; type: in vivo, Beta vulgaris
How it was run: as §1

[7] = test system: bedstraw; assay: Test B pre/postemergence bedstraw; type: in vivo, Galium aparine
How it was run: as §1

[8] = test system: rape; assay: Test B pre/postemergence rape; type: in vivo, Brassica napus
How it was run: as §1

[9] = test system: surinam grass; assay: Test B pre/postemergence surinam grass; type: in vivo, Brachiaria decumbens
How it was run: as §1

[10] = test system: purple nutsedge; assay: Test B pre/postemergence purple nutsedge; type: in vivo, Cyperus rotundus
How it was run: as §1

[11] = test system: giant foxtail; assay: Test B pre/postemergence giant foxtail; type: in vivo, Setaria faberii
How it was run: as §1

[12] = test system: wild oat; assay: Test B pre/postemergence wild oat; type: in vivo, Avena fatua
How it was run: as §1

[13] = test system: crabgrass; assay: Test B pre/postemergence crabgrass; type: in vivo, Digitaria sanguinalis
How it was run: as §1

[14] = test system: pigweed; assay: Test B pre/postemergence pigweed; type: in vivo, Amaranthus retroflexus
How it was run: as §1

[15] = test system: soybean; assay: Test B pre/postemergence soybean; type: in vivo, Glycine max
How it was run: as §1

[16] = test system: wheat; assay: Test B pre/postemergence wheat; type: in vivo, Triticum aestivum
How it was run: as §1

[17] = Rate 125 g/ha, scale of 0 to 10 where 0 is no effect and 10 is complete control
[18] = Rate 250 g/ha, scale 0 (no effect) to 10 (complete control)
[19] = Rate 500 g/ha, scale 0 to 10 (0 no effect, 10 complete control)

CC(C)N(C(=O)n1oc(=O)n(CBr)c1=O)c1ccccc1 [Compound 755]
Plant response rating, Corn [1, 17]: 0 | Corn plant response rating [1, 18]: 0 | Corn plant response rating ([1]; Rate 62 g/ha, scale 0 to 10): 0 | Corn plant response rating [1, 19]: 0 | Plant response rating, Velvetleaf [2, 17]: 0 | Velvetleaf plant response rating [2, 18]: 0 | Velvetleaf plant response rating ([2]; Rate 62 g/ha, scale 0 to 10): 0 | Velvetleaf plant response rating [2, 19]: 0 | Plant response rating, Cocklebur [3, 17]: 0 | Cocklebur plant response rating [3, 18]: 0 | Cocklebur plant response rating ([3]; Rate 62 g/ha, scale 0 to 10): 0 | Cocklebur plant response rating [3, 19]: 0 | Plant response rating, Morningglory [4, 17]: 0 | Morningglory plant response rating [4, 18]: 0 | Morningglory plant response rating ([4]; Rate 62 g/ha, scale 0 to 10): 0 | Morningglory plant response rating [4, 19]: 0 | Plant response rating, Blackgrass [5, 17]: 0 | Blackgrass plant response rating [5, 18]: 0 | Blackgrass plant response rating ([5]; Rate 62 g/ha, scale 0 to 10): 0 | Blackgrass plant response rating [5, 19]: 0 | Plant response rating, Sugarbeets [6, 17]: 0 | Sugarbeets plant response rating [6, 18]: 0 | Sugarbeets plant response rating ([6]; Rate 62 g/ha, scale 0 to 10): 0 | Sugarbeets plant response rating [6, 19]: 0 | Plant response rating, Bedstraw [7, 17]: 0 | Bedstraw plant response rating [7, 18]: 0 | Bedstraw plant response rating ([7]; Rate 62 g/ha, scale 0 to 10): 0 | Bedstraw plant response rating [7, 19]: 0 | Plant response rating, Rape [8, 17]: 0 | Rape plant response rating [8, 18]: 0 | Rape plant response rating ([8]; Rate 62 g/ha, scale 0 to 10): 0 | Rape plant response rating [8, 19]: 0 | B. signalgrass plant response rating ([9]; Rate 62 g/ha, scale of 0 to 10 where 0 is no effect and 10 is complete control): 0 | Plant response rating, B. signalgrass [9, 17]: 0 | B. signalgrass plant response rating [9, 18]: 0 | B. signalgrass plant response rating [9, 19]: 0 | Nutsedge plant response rating [10, 18]: 0 | Nutsedge plant response rating ([10]; Rate 62 g/ha, scale 0 to 10): 0 | Nutsedge plant response rating [10, 19]: 0 | Plant response rating, Giant foxtail [11, 17]: 0 | Giant foxtail plant response rating [11, 18]: 0 | Giant foxtail plant response rating ([11]; Rate 62 g/ha, scale 0 to 10): 0 | Giant foxtail plant response rating [11, 19]: 2 | Plant response rating, Wild oats [12, 17]: 0 | Wild oats plant response rating [12, 18]: 0 | Wild oats plant response rating ([12]; Rate 62 g/ha, scale 0 to 10): 0 | Wild oats plant response rating [12, 19]: 0 | Plant response rating, Crabgrass [13, 17]: 0 | Crabgrass plant response rating [13, 18]: 0 | Crabgrass plant response rating ([13]; Rate 62 g/ha, scale 0 to 10): 0 | Crabgrass plant response rating [13, 19]: 0 | Plant response rating, Redroot pigweed [14, 17]: 0 | Redroot pigweed plant response rating [14, 18]: 0 | Redroot pigweed plant response rating ([14]; Rate 62 g/ha, scale 0 to 10): 0 | Redroot pigweed plant response rating [14, 19]: 0 | Plant response rating, Soybean [15, 17]: 0 | Soybean plant response rating [15, 18]: 0 | Soybean plant response rating ([15]; Rate 62 g/ha, scale 0 to 10): 0 | Soybean plant response rating [15, 19]: 0 | Plant response rating, Wheat [16, 17]: 0 | Wheat plant response rating [16, 18]: 0 | Wheat plant response rating ([16]; Rate 62 g/ha, scale 0 to 10): 0 | Wheat plant response rating [16, 19]: 0
